Measured values reported in patent publication US9828369B2, “Isoquinoline derivatives useful as inhibitors of diacylglyceride O-acyltransferase 2” (Merck Sharp & Dohme Corp., priority 2014, dated 2017).

target: hDGAT2 (Homo sapiens (Human), UniProt Q96PD7); assay: DGAT2 enzymatic activity assay (triolein formation, LC/MS/MS); conditions: not given
Sequence (Q96PD7 whole entry): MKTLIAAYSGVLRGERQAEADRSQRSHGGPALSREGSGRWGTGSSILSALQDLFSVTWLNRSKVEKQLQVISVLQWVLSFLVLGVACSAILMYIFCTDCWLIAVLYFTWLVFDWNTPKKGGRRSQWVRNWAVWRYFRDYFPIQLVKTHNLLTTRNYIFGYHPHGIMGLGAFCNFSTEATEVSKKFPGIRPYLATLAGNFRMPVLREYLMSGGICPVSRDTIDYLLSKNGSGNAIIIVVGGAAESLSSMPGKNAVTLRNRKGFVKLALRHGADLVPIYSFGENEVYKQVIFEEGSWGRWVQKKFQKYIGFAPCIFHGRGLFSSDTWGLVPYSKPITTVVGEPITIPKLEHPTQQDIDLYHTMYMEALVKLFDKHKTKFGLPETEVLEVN

SMILES | IC50 [nM]
COc1cccc(-c2ccc(CNC(=O)[C@H](C)c3ccc4cc(OC)ccc4c3)c3cnccc23)c1 (racemic) [Example 142, (R/S)-2-(6-methoxynaphthalen-2-yl)-N-((5-(3-methoxyphenyl)isoquinolin-8-yl)methyl)propanamide] | 118
COc1cccc(-c2ccc(CNC(=O)[C@H](C)c3ccc(CC(C)C)cc3)c3cnccc23)c1 (racemic) [Example 146, (R/S)-2-(4-isobutylphenyl)-N-((5-(3-methoxyphenyl)isoquinolin-8-yl)methyl)propanamide] | 923

same assay, conditions: read-out: IC50 values for inhibition of DGAT2; membrane prep of Sf-9 cells expressing hDGAT2; 25 μM diolein, 10 μM oleoyl-CoA; room temperature; triolein by LC/MS/MS

SMILES | IC50 [nM]
COc1cccc(-c2ccc(CNC(=O)Cc3ccc(OC(F)(F)F)cc3)c3cnccc23)c1 [Example 57, N-((5-(3-methoxyphenyl)isoquinolin-8-yl)methyl)-2-(4-(trifluoromethoxy)phenyl)acetamide] | 4450
COc1cccc(-c2ccc(CNC(=O)Cc3ccccc3F)c3cnccc23)c1 [Example 49, 2-(2-fluorophenyl)-N-((5-(3-methoxyphenyl)isoquinolin-8-yl)methyl)acetamide] | 993
COc1cccc(-c2ccc(CNC(=O)c3cncc4ccccc34)c3cnccc23)c1 [Example 33, N-((5-(3-methoxyphenyl)isoquinolin-8-yl)methyl)isoquinoline-4-carboxamide] | 3410
COc1cccc(-c2ccc(CNC(=O)c3cc(-c4ccccc4)no3)c3cnccc23)c1 [Example 80, N-((5-(3-methoxyphenyl)isoquinolin-8-yl)methyl)-3-phenylisoxazole-5-carboxamide] | 2410
COc1cccc(-c2ccc(CNC(=O)C3CC3c3ccc(F)cc3)c3cnccc23)c1 (stereo not shown) [Example 102, 2-(4-fluorophenyl)-N-((5-(3-methoxyphenyl)isoquinolin-8-yl)methyl)cyclopropanecarboxamide] | 178
COC(=O)c1cccc(-c2ccc(CNC(=O)c3cnn(-c4ccccc4)c3C(F)(F)F)c3cnccc23)c1 [Example 8, methyl 3-(8-((1-phenyl-5-(trifluoromethyl)-1H-pyrazole-4-carboxamido)methyl)isoquinolin-5-yl)benzoate] | 123
COc1cccc(-c2ccc(CNC(=O)c3cccc4cnccc34)c3cnccc23)c1 [Example 92, N-((5-(3-methoxyphenyl)isoquinolin-8-yl)methyl)isoquinoline-5-carboxamide] | 1760
COCCCc1ccc(CNC(=O)Nc2cccc(Cl)c2Cl)c2cnccc12 [Example 159, 1-(2,3-dichlorophenyl)-3-((5-(3-methoxypropyl)isoquinolin-8-yl)methyl)urea] | 478
COc1cccc(-c2ccc(CNC(=O)c3cnn(Cc4ccccc4)c3)c3cnccc23)c1 [Example 115, 1-benzyl-N-((5-(3-methoxyphenyl)isoquinolin-8-yl)methyl)-1H-pyrazole-4-carboxamide] | 3390
COC(=O)c1cccc(-c2ccc(CNC(=O)Cc3ccc(C(F)(F)F)cc3)c3cnccc23)c1 [Example 2, methyl 3-(8-((2-(4-(trifluoromethyl)phenyl)acetamido)methyl)isoquinolin-5-yl)benzoate] | 85.6
COc1cccc(-c2ccc(CNC(=O)c3ncco3)c3cnccc23)c1 [Example 38, N-((5-(3-methoxyphenyl)isoquinolin-8-yl)methyl)oxazole-2-carboxamide] | 3200
COc1cccc(-c2ccc(CNC(=O)c3cnco3)c3cnccc23)c1 [Example 37, N-((5-(3-methoxyphenyl)isoquinolin-8-yl)methyl)oxazole-5-carboxamide] | 1270
CCOc1cccc(-c2ccc(CNC(=O)C3CC3c3ccccc3)c3cnccc23)c1 (stereo not shown) [Example 15, N-((5-(3-ethoxyphenyl)isoquinolin-8-yl)methyl)-2-phenylcyclopropanecarboxamide] | 115
COc1cccc(-c2ccc(CNC(=O)Cc3cccc(Cl)c3)c3cnccc23)c1 [Example 54, 2-(3-chlorophenyl)-N-((5-(3-methoxyphenyl)isoquinolin-8-yl)methyl)acetamide] | 2760
COc1cccc(-c2ccc(CNC(=O)Cc3cccc(OC(F)(F)F)c3)c3cnccc23)c1 [Example 62, N-((5-(3-methoxyphenyl)isoquinolin-8-yl)methyl)-2-(3-(trifluoromethoxy)phenyl)acetamide] | 602
COc1cccc(-c2ccc(CNC(=O)c3c[nH]c(-c4ccccc4)n3)c3cnccc23)c1 [Example 73, N-((5-(3-methoxyphenyl)isoquinolin-8-yl)methyl)-2-phenyl-1H-imidazole-4-carboxamide] | 5840
COc1cccc(-c2ccc(CNC(=O)Cc3ccc(C(F)(F)F)cc3)c3cnccc23)c1 [Example 46, N-((5-(3-methoxyphenyl)isoquinolin-8-yl)methyl)-2-(4-(trifluoromethyl)phenyl)acetamide] | 317
CC(C)OC(=O)c1cccc(-c2ccc(CNC(=O)C3CC3c3ccccc3)c3cnccc23)c1 (stereo not shown) [Example 20, isopropyl 3-(8-((2-phenylcyclopropanecarboxamido)methyl)isoquinolin-5-yl)benzoate] | 1860
COC(=O)c1cccc(-c2ccc(CNC(=O)C3CC3c3nc(C)no3)c3cnccc23)c1 (stereo not shown) [Example 4, methyl 3-(8-((2-(3-methyl-1,2,4-oxadiazol-5-yl)cyclopropane-carboxamido)methyl)isoquinolin-5-yl)benzoate] | 96.5
COC(=O)c1cccc(-c2ccc(CNC(=O)Cc3ccc(Oc4ccccc4)cc3)c3cnccc23)c1 [Example 6, methyl 3-(8-((2-(4-phenoxyphenyl)acetamido)methyl)isoquinolin-5-yl)benzoate] | 101
COc1cccc(-c2ccc(CNC(=O)c3cc(C)n(Cc4ccccc4)n3)c3cnccc23)c1 [Example 117, 1-benzyl-N-((5-(3-methoxyphenyl)isoquinolin-8-yl)methyl)-5-methyl-1H-pyrazole-3-carboxamide] | 942
COc1cccc(-c2ccc(CNC(=O)Cc3ccccc3C(F)(F)F)c3cnccc23)c1 [Example 51, N-((5-(3-methoxyphenyl)isoquinolin-8-yl)methyl)-2-(2-(trifluoromethyl)phenyl)acetamide] | 1750
COc1cccc(-c2ccc(CNC(=O)Cc3cc(F)c(F)c(F)c3)c3cnccc23)c1 [Example 60, N-((5-(3-methoxyphenyl)isoquinolin-8-yl)methyl)-2-(3,4,5-trifluorophenyl)acetamide] | 2140
